The NIST ThermoML archive (doi:10.1021/je0501585)

Test: xn = mol fraction of the nth substance listed
Settings: 101 kPa, Liquid; for viscosity: Capillary tube (Ostwald / Ubbelohde) method; for excess molar volume: Direct dilatometry; for speed of sound: Linear variable-path acoustic interferometer

Cc1ccc(C)cc1 [1,4-dimethylbenzene] + CCCCCCCCCC
Settings	excess molar volume, 303.15 K [m3/mol]	excess molar volume, 308.15 K [m3/mol]	excess molar volume, 313.15 K [m3/mol]	speed of sound, 303.15 K [m/s]	speed of sound, 308.15 K [m/s]	speed of sound, 313.15 K [m/s]	viscosity, 303.15 K [mPa·s]	viscosity, 308.15 K [mPa·s]	viscosity, 313.15 K [mPa·s]
x1 = 0.1533	2.83e-07	4.89e-07	6.99e-07	1215.1	1192.3	1176.9	0.729	0.678	0.66
x1 = 0.2952	4.35e-07	6.8e-07	9.11e-07	1220	1197.6	1182	0.68	0.639	0.623
x1 = 0.4189	5.14e-07	7.6e-07	9.8e-07	1225.5	1203.1	1187.7	0.646	0.609	0.59
x1 = 0.4949	5.29e-07	7.59e-07	9.81e-07	1230	1207.3	1192	0.628	0.592	0.573
x1 = 0.6001	4.9e-07	7.03e-07	9.41e-07	1237.9	1214.1	1198.8	0.605	0.572	0.552
x1 = 0.6938	4.26e-07	6.32e-07	8.76e-07	1246.6	1221.6	1205.6	0.588	0.557	0.538
x1 = 0.7777	3.54e-07	5.56e-07	7.71e-07	1255.4	1229	1212.5	0.576	0.546	0.527
x1 = 0.8604	2.73e-07	4.55e-07	6.47e-07	1265.3	1238.4	1221.3	0.568	0.539	0.519
x1 = 0.9332	1.72e-07	3.03e-07	4.4e-07	1274.4	1251	1232.8	0.566	0.537	0.515
x1 = 1	0	0	0	1283.7	1271	1260	0.566	0.537	0.513
